Results from patent publication US12636331B2, “Composition for preventing or treating lung cancer, comprising a compound isolated from Cephalotaxus extract as an active ingredient” (priority 2020, dated 2026).

Legend:
NCI-H460 tumorspheroids [1] = assay: LIVE/DEAD cell death staining of tumorspheroids; format: cell-based; settings: NCI-H460 tumorspheroids, 1,3,5 uM IHT, 72 hours
Procedure: (§1) After the IHT was treated with NCI-H460 and A549 tumorspheroids for 72 hours, the cell death was observed using LIVE/DEAD Viability/Cytotoxicity Kit (Thermo Scientific). Live cells were stained with green fluorescence-labeled calcein-AM, dead cells were stained with red fluorescence-labeled ethidium homodimer-1 (EthD-1), and images were taken at 100× magnification using the Operetta High Content Screening (HCS) System.

A549 xenograft tumors = assay: A549 xenograft tumor growth; format: in vivo; settings: athymic nude mice, intratumoral IHT 20 μg/kg (500 ng) twice a week with siNR4A1 once a week, 4 weeks
Procedure: Further, A549 cells (5×10^6) were inoculated into the dorsal side of athymic nude mice, and when the tumor size reached 100-150 mm^3, siRNA (50 pmoles) and IHT (500 ng) were intratumorally administered once a week and twice a week, respectively, for 4 weeks. The tumor size was monitored twice a week, and tumor volume was calculated by the following Equation 3. […] V(mm^3)=length×width×width/2 [Equation 3]

A549 tumorspheroids [2] = assay: Apoptosis by Cell Death detection ELISA kit; format: cell-based; settings: 72 hours
Procedure: (§2) An experiment was designed to confirm whether cell death induced in 3D tumorspheroids was apoptosis. Induction of apoptosis was examined after treating NCI-H460 tumorspheroids with IHT or treating A549 tumorspheroids with IHT along with siNC or siNR4A1. NCI-H460 and siRNA-treated A549 tumorspheroids were treated with IHT at the indicated concentrations for 72 hours, and then apoptosis was measured using a Cell Death detection ELISA kit. Further, after IHT treatment for 72 hours, single cells were isolated from tumorspheroids, stained with Annexin V and 7-AAD, and analyzed by a flow cytometry. Apoptotic cell population was represented as the ratio of cells in the early apoptotic processes that are annexin V-positive/7-AAD-negative, and terminal apoptotic process positive for both annexin V/7-AAD (FIG. 5). All data are expressed as mean±standard deviation. *p<0.05 indicates a significant difference compared to a control group, and **p<0.01 indicates a significant difference compared to a control group.

NCI-H460 tumorspheroids [3] = assay: Apoptosis by Cell Death detection ELISA kit; format: cell-based; settings: 72 hours
Procedure: as §2

A549 tumorspheroids [4] = assay: LIVE/DEAD cell death staining of tumorspheroids; format: cell-based; settings: 72 hours
Procedure: (§3) After IHT was treated onto the 3D tumorspheroid of NCI-H460, or siNR4A1 and IHT were treated in combination on the 3D tumorspheroid of A549, the growth inhibition and cell death induction of tumorspheroids were observed. Negative control (siNC) or siNR4AT-transfected A549 and non-transfected NCI-H460 tumorspheroids were treated with IHT at each concentration, and after 48 and 72 hours, the cell growth was measured using CellTiter-Glo 3D cell viability assay kit (Promega). A549 cells were transfected with […] siRNA using Lipofectamine 2000 (Invitrogen), and siNR4A1 of SEQ ID NO: 1 (5′-GAGCUAUUCCAUGCCUACG-3′) and SEQ ID NO: 2 (5′-GGAUACUGGAUACACCCGU-3′) were mixed and used.
as §1

A549 tumorspheroids [5] = assay: Mitochondrial membrane potential (JC-1, flow cytometry); format: cell-based; settings: IHT 1 uM and siNR4A1 simultaneously, 48 hours
Procedure: (§4) In the induction of apoptosis by the intrinsic pathway, a decisive process is the release of cytochrome C inside mitochondria to the outside due to changes in mitochondrial membrane potential. After 48 hours of treatment to measure mitochondrial membrane potential changes, tumorspheroids were isolated into single cells and stained with JC-1, and flow cytometry was used to measure the percentage of mitochondria-damaged cells. The percentage of cells in which JC-lexists as a single entity, meaning a decrease in mitochondrial membrane potential, was indicated. In addition, A549 tumorspheroids transfected with negative control (siNC) or siNR4A1 and NCI-H460 tumorspheroids were treated with IHT for 48 hours, and then subjected to Western blot analysis for apoptosis-related protein changes, and the results are shown in FIG. 6.

NCI-H460 tumorspheroids [6] = assay: as above; format: cell-based; settings: 3 uM IHT, 48 hours
Procedure: as §4

p21 protein = assay: Western blot for p21 protein in 2D-cultured NCI-H460; format: cell-based; settings: NCI-H460 2D, 48 hours, low concentrations below the ED50
Procedure: NCI-H460 cell line was cultured in 2D, treated with IHT at the indicated concentration for 48 hours, and then Western blots were performed to measure changes in p21 protein.
(§5) The cells were dissolved in a RIPA (radio immunoprecipitation) buffer containing protease inhibitors, phosphatase inhibitors, PMSF (phenylmethylsulfonyl fluoride), and DTT (dithiothreitol), and protein concentration was quantified with a micro BCA test kit. Equal amounts of protein was added to a polyacrylamide gel containing SDS (Sodium dodecyl sulphate), isolated by electrophoresis, and transferred to a polyvinylidene difluoride (PVDF) membrane. The membrane was blocked with a solution containing 5%-TBST (tris-buffered saline with Tween20) milk, and the primary antibody was exposed at 4 degrees Celsius for 16 hours.
The antibodies used were as follows: β-actin (sc-477778), p53 (sc-126), Bax (sc-526) (Santacruz Biotechnology); cleaved caspase-7 (Asp198) (#9491), cleaved poly (ADP-ribose) polymerase (PARP) (#9541), X chromosome-linked inhibitor of apoptosis (XIAP) (#2045), Survivin (#2808), p21 (#2947), phospho-Akt (#9275), cleaved caspase-9 (#9501), caspase-9 (#9502), caspas-8 (#9746), phospho-Stat3 (#9145) (Cell Signaling Technology). […]

A549 tumorspheroids [7] = assay: Western blot of apoptosis-related proteins; format: cell-based
Procedure: as §5
(§6) The antibodies used were as follows: β-actin (sc-477778), p53 (sc-126), Bax (sc-526) (Santacruz Biotechnology); cleaved caspase-7 (Asp198) (#9491), cleaved poly (ADP-ribose) polymerase (PARP) (#9541), X chromosome-linked inhibitor of apoptosis (XIAP) (#2045), Survivin (#2808), p21 (#2947), phospho-Akt (#9275), cleaved caspase-9 (#9501), caspase-9 (#9502), caspas-8 (#9746), phospho-Stat3 (#9145) (Cell Signaling Technology).
(§7) Subsequently, the membrane was washed with TBSP, and then exposed to the secondary antibody conjugated with HRP (horseradish peroxidase, Santacruz Biotechnology) at room temperature for 1 hour, washed, and film-developed using an ECL (enhanced chemiluminescence, Amersham) kit to observe the bands.
as §4

NCI-H460 tumorspheroids [8] = assay: Western blot of apoptosis-related proteins; format: cell-based
Procedure: as §5, §6, §7, §4

A549 tumorspheroids [9] = assay: 3D tumorspheroid growth (CellTiter-Glo 3D); format: cell-based
Procedure: (§8) A549 and NCI-H460 cell lines were placed in 96-well ultra-low attachment (ULA) plates at 7,000 and 1500 cells/well, and centrifuged at 1000 rpm for 10 minutes. Then, they were cultured in Roswell Park Memorial Institute (RPMI) 1640 medium mixed with 0.5% Matrigel, 10% Fetal Bovine Serum (FBS), and 1× penicillin-streptomycin for 2 days. They were treated with IHT, and the degree of cell growth was measured with CellTiter-Glo 3D (Promega, Madison, WI, USA) reagent after 72 hours, and 2D cultured cells were exposed to IHT at the indicated concentration for 48 hours, and then the cell growth was measured with CellTiter-Glo reagent. The average effective dose ED50 of IHT was determined by analyzing the dose-response curve with GraphPad Prism, and the results are shown in FIG. 2. The scale bar was 100 μm, and all data were expressed as mean±standard deviation.
as §3

NCI-H460 tumorspheroids [10] = assay: 3D tumorspheroid growth (CellTiter-Glo 3D); format: cell-based
Procedure: as §8, §3

A549 tumorspheroids [11] = assay: Combined treatment of cisplatin and IHT, tumorspheroid cell growth; format: cell-based
Procedure: A549 tumorspheroids were grown for 3 days, then subjected to the combined treatment of cisplatin and IHT at the indicated concentrations.

A549 tumorspheroids [12] = assay: Annexin V / 7-AAD flow cytometry; format: cell-based; settings: 72 hours
Procedure: as §2
Further, using the phenomenon that annexin V was exposed to the outside of the cell membrane in the early stage of apoptosis, cells were stained with annexin V, stained with 7-Amino-Actinomycin D (7-AAD) penetrating into dead cells, and analyzed with a flow cytometry, thus showing apoptosis and cell death.

[13] = system: C. elegans jgIs25 (EGFR T790M-L858R); assay: Multivulva (Muv) formation in C. elegans with EGFR double mutation; format: in vivo
Description: In non-small cell lung cancer patients with EGFR (epidermal growth factor receptor) exon21 mutation (L858R), the therapeutic effect of EGFR-TKI (tyrosine kinase inhibitor) is excellent. However, tolerance develops quickly, one mechanism of which is because the second mutation (L858R, T790M) occurs in EGFR. C. elegans with EGFR double mutation (L858R, T790M) causes cell proliferation (multivulva formation). It was observed whether cell proliferation could be inhibited upon IHT treatment. This is an in vivo system that can predict the therapeutic effect of lung cancer resistant to EGFR-TKIs, by introducing genetic mutations observed in cells showing drug resistance to the EGFR-TKI (tyrosine kinase inhibitor) used as a therapeutic agent for human lung cancer.
After IHT treatment to C. elegans jgIs25, observations were performed using a differential interference contrast (DIC) microscope. 0.5% DMSO was used as a vehicle control. […] 0.1% DMSO as a control or 5 μM IHT was. Data are expressed as mean±standard error, **P<0.01 and ***P<0.001.

A549 cell line = assay: 2D culture cell growth (CellTiter-Glo); format: cell-based; settings: Homo sapiens; 2D culture A549, 48 hours; read-out: ED50, cell proliferation
Procedure: as §8

NCI-H460 cell line = assay: 2D culture cell growth (CellTiter-Glo); format: cell-based; settings: Homo sapiens; 2D culture NCI-H460, 48 hours; read-out: ED50, cell proliferation
Procedure: as §8

[14] = A549 tumorspheroids with inhibition of NR4A1 expression (siNR4A1), IHT 1 uM

SMILES: COC(=O)[C@@H](O)[C@](O)(CCC(C)C)C(=O)O[C@@H]1C(OC)=C[C@]23CCCN2CCc2cc4c(cc2C13)OCO4 (stereo partly shown) [IHT, isoharringtonine]
- cell death of tumorspheroids (NCI-H460 tumorspheroids [1]): effectively induced at all concentrations
- xenograft tumor suppression (tumor volume) (A549 xenograft tumors): tumor suppressive effects were observed
- apoptosis (DNA fragments, ELISA) (A549 tumorspheroids [2]; IHT alone): apoptosis was not induced
- apoptosis (DNA fragments, ELISA) (A549 tumorspheroids [2]; simultaneous treatment with siNR4A1, IHT 1 uM): sharply increased apoptosis
- apoptosis (DNA fragments, ELISA) (NCI-H460 tumorspheroids [3]): increased from 1 uM in a dose-dependent manner
- cell death of tumorspheroids (A549 tumorspheroids [4]; [14]): sharply induced cell death
- cell death of tumorspheroids (A549 tumorspheroids [4]; A549 tumorspheroids, IHT alone): did not induce cell death
- mitochondrial membrane potential (A549 tumorspheroids [5]): induced a decrease in mitochondrial membrane potential
- mitochondrial membrane potential (NCI-H460 tumorspheroids [6]): changes in mitochondrial membrane potential were induced
- change in p21 protein (p21 protein): increased p21
- cleavage of caspase-9 (A549 tumorspheroids [7]; IHT+siNR4A1, 48 hours): induced the cleavage of caspoase-9
- Mcl-1 and XIAP protein (A549 tumorspheroids [7]; both IHT and siNR4A1, 48 hours): induced a reduction of Mcl-1 and XIAP
- phospho-Akt (A549 tumorspheroids [7]; both IHT and siNR4A1, 48 hours): reduction of phospho-Akt
- Bcl-2 and Mcl-1 protein (NCI-H460 tumorspheroids [8]; 48 hours): induces the reduction of Bcl-2 and Mcl-1
- Survivin and XIAP protein (NCI-H460 tumorspheroids [8]; 48 hours): induces the decrease of Survivin and XIAP
- p53 protein (NCI-H460 tumorspheroids [8]; 48 hours): induces an increase in p53
- phospho-Akt (NCI-H460 tumorspheroids [8]; 48 hours): reduction of phospho-Akt
- cleavage of caspase-9 (NCI-H460 tumorspheroids [8]; IHT 48 hours): induced the cleavage of caspoase-9
- growth inhibition of tumorspheroids (A549 tumorspheroids [9]; [14]): rapid growth-inhibitory effect
- growth inhibition of tumorspheroids (A549 tumorspheroids [9]; A549 tumorspheroids, IHT alone (siNC), 48 and 72 hours): did not have a significant growth-inhibitory effect
- EC50 (A549 tumorspheroids [9]; Homo sapiens, A549 3D tumorspheroid, 72 hours, ED50 'predicted'): 9600 ± 1120 nM
- EC50 (NCI-H460 tumorspheroids [10]; Homo sapiens, 3D tumorspheroid of NCI-H460, 72 hours, read-out: average effective amount (ED50), tumorspheroid growth): 143 ± 40 nM
- growth inhibition of tumorspheroids (NCI-H460 tumorspheroids [10]; NCI-H460 tumorspheroids, 1,3,5 uM IHT, 48 and 72 hours): effectively induced at all concentrations
- cell growth inhibition (A549 tumorspheroids [11]; A549 tumorspheroids, 10 μM IHT in combination with 10 μM cisplatin, 3 days): stronger inhibition of cell growth
- cell growth inhibition (A549 tumorspheroids [11]; A549 tumorspheroids, 10 μM IHT, 3 days): very effectively inhibited
- inhibition at 1 µM (A549 tumorspheroids [11]; Homo sapiens, A549, 72 h, read-out: cell growth inhibition): ~48%
- apoptosis (annexin V/7-AAD) (A549 tumorspheroids [12]; IHT alone): did not induce apoptosis
- apoptosis (annexin V/7-AAD) (A549 tumorspheroids [12]; simultaneous treatment with siNR4A1, IHT 1 μM): sharply increased apoptosis
- multivulva formation ([13]; C. elegans jgIs25, high concentrations of IHT): multivulva formation was significantly inhibited
- multivulva formation ([13]; C. elegans jgIs25, low IHT concentration (5 μM) with sinhr-6 (nhr-6 RNAi)): multivulva formation was significantly inhibited
- multivulva formation ([13]; C. elegans jgIs25, low concentration (5 uM) IHT): multivulva formation was not inhibited
- EC50 (A549 cell line): 481 ± 50 nM
- EC50 (NCI-H460 cell line): 94 ± 20 nM

SMILES: N.N.[Cl][Pt][Cl] [cisplatin, reference compound]
- inhibition of tumorspheroid growth (A549 tumorspheroids [11]; A549 tumorspheroids, 30 μM cisplatin alone, 3 days): significant but minute inhibition of growth
